Test system: lashes and adjacent hairs of patients
Assay: Eyelash and hair growth observed in glaucoma patients treated in one eye
Format: in vivo, human
Settings: glaucoma patients treated in only one eye
Description: In the course of treating patients having glaucoma, treatment may only be appropriate in one eye. […] The lash appearance on the lids of the treated eyes would have appeared quite attractive if it represented a bilateral phenomenon. As a result of its asymmetric nature, the long lashes on one side could be construed as disturbing from a cosmetic standpoint. A systemic examination was preformed as a result of the asymmetric phenomenon. It soon became apparent that this altered appearance was not an isolated finding. […] Definite differences could be identified to varying degrees in the lashes and adjacent hairs of all patients who were taking the drug on a unilateral basis for longer than 6 months.
The changes in the lashes were apparent on gross inspection in several patients once attention was focused on the issue. In those with light colored hair and lashes, the differences were only seen easily with the aid of the high magnification and lighting capabilities of the slit lamp biomicroscope. In the course of glaucoma follow-up examination, attention is generally immediately focused on the eye itself. As a result of the high power magnification needed only one eye is seen at a time and the eye is seen at a high enough power that the lashes are not in focus. […]

In the case of CCNC(=O)CCC/C=C\C[C@@H]1[C@@H](/C=C/[C@@H](O)CCc2ccccc2)[C@H](O)C[C@@H]1O [bimatoprost], the “lash appearance in treated eye versus non-treated eye” value is reported as “longer, thicker, and fuller”.

Source: patent US20090239858A1, “THERAPEUTIC AMIDES” (ALLERGAN, INC., priority 2008, published 2009)
